Laboratory results published in patent publication US20230065953A1, “NOVEL HETEROARYL-TRIAZOLE COMPOUNDS AS PESTICIDES” (Bayer Aktiengesellschaft, priority 2019, published 2023).

What was measured:
Type in all cases: in vivo
[1] = test system: larvae of the southern green stink bug (Nezara viridula); assay: Nezara viridula spray test; details: in Hordeum vulgare, 96 h
Procedure: Nezara viridula—Spray Test • Solvent: 78.0 parts by weight of acetone • 1.5 parts by weight of dimethylformamide • Emulsifier: alkylarylpolyglycol ether
(§1) To produce a suitable preparation of active compound, 1 part by weight of active compound is mixed with the stated amount of solvent, and the concentrate is diluted with water, containing an emulsifier concentration of 1000 ppm, to the desired concentration. Further test concentrations are prepared by dilution with emulsifier containing water.
Barley plants (Hordeum vulgare) are sprayed with a test solution containing the desired concentration of the active ingredient and are infested with larvae of the southern green stink bug (Nezara viridula).
After 4 days mortality in % is determined. 100% means all the stink bugs have been killed; 0% means none of the stink bugs have been killed.

[2] = test system: fall armyworm larvae (Spodoptera frugiperda); assay: Spodoptera frugiperda spray test (maize leaf sections); details: 168 h
Procedure: Spodoptera frugiperda—Spray Test • Solvent: 78.0 parts by weight acetone • 1.5 parts by weight dimethylformamide • Emulsifier: alkylarylpolyglycol ether
as §1, with “solvents” for “solvent,”, “and” for “and the concentrate”
Maize (Zea mays) leaf sections are sprayed with a preparation of the active ingredient of the desired concentration. Once dry, the leaf sections are infested with fall armyworm larvae (Spodoptera frugiperda).
After 7 days mortality in % is determined. 100% means all caterpillars have been killed and 0% means none of the caterpillars have been killed.

[3] = test system: larvae of the banded cucumber beetle (Diabrotica balteata); assay: Diabrotica balteata spray test; details: 168 h, 100 g/ha (=32 μg/well), wheat seeds, after 7 days, read-out: efficacy (seedling growth)
Procedure: Diabrotica Balteata—Spray Test
• Solvent: 78.0 parts by weight of acetone • 1.5 parts by weight of dimethylformamide • Emulsifier: alkylarylpolyglycol ether
Further test concentrations are prepared by dilution with emulsifier containing water.
Soaked wheat seeds (Triticum aestivum) are placed in a multiple well plate filled with agar and some water and are incubated for 1 day to germinate (5 seeds per well). The germinated wheat seeds are sprayed with a test solution containing the desired concentration of the active ingredient. Afterwards each unit is infected with 10-20 larvae of the banded cucumber beetle (Diabrotica balteata).
After 7 days efficacy in % is determined.

[4] = test system: green peach aphid (Myzus persicae); assay: Myzus persicae spray test; details: foliar, 120 h, Chinese cabbage leaf disks, after 5 days
Procedure: Myzus persicae—Spray Test • Solvent: 78.0 parts by weight acetone • 1.5 parts by weight dimethylformamide • Emulsifier: alkylarylpolyglycol ether
as §1, with “solvents” for “solvent,”, “and” for “and the concentrate”
Chinese cabbage (Brassica pekinensis) leaf disks infected with all instars of the green peach aphid (Myzus persicae), are sprayed with a preparation of the active ingredient of the desired concentration.
After 5 days mortality in % is determined. 100% means all aphids have been killed and 0% means none of the aphids have been killed.

[5] = test system: Rhipicephalus microplus larvae (strain Parkhurst, resistant against synthetic pyrethroids); assay: Rhipicephalus (Boophilus) microplus in-vitro contact test, larval cattle tick; details: 5 μg/cm^2 (=500 g/ha), after 48 hours, read-out: efficacy (larvae dead or moribund)
Procedure: Rhipicephalus (Boophilus) Microplus—In-Vitro Contact Tests Larval Cattle Tick (Strain Parkhurst, Resistant Against Synthetic Pyrethroids)
9 mg compound is solved in 1 mL acetone and diluted with acetone to the desired concentration. 250 μL of the test solution is filled in 25 mL glass test tubes and homogeneously distributed on the inner walls by rotation and tilting on a shaking device (2 h at 30 rpm). With a compound concentration of 900 ppm, an inner surface of 44.7 cm^2 and a homogeneous distribution, a dose of 5 μg/cm^2 is achieved.
After the solvent has evaporated, each test tube is filled with 20-50 cattle tick larvae (Rhipicephalus microplus), closed with a perforated lid and incubated in a horizontal position at 85% relative humidity and 27° C. in an incubator. After 48 hours efficacy is determined. The larvae are patted on the ground of the tubes and negative geotactic behavior is recorded.
An efficacy of 100% means all larvae are dead or moribund; 0% means no larvae are dead or moribund.

SMILES | mortality at 500 g/ha [1] | mortality at 100 g/ha [2] | pest or weed control at 32 µg/disc, 100 g/ha [3] | mortality at 100 g/ha [4] | mortality at 100 g/ha [1] | pest or weed control at 5 µg/cm2 [5]
C[C@H](NC(=O)c1cc(Cl)cc(S(=O)(=O)C2CC2)c1)c1ncnn1-c1ncc(C#N)s1 [I-46] | 100% | 100% | 100% | 90% | – | –
C[C@H](NC(=O)c1cc(OC(F)F)cc(S(=O)(=O)C2CC2)c1)c1ncnn1-c1ncc(C#N)s1 [I-50] | 100% | 100% | – | 90% | 90% | –
C[C@H](NC(=O)c1cc(C(F)F)cc(S(=O)(=O)C2CC2)c1)c1ncnn1-c1ncc(C#N)s1 [I-51] | 100% | 100% | – | 90% | 100% | –
C[C@H](NC(=O)c1cc(OC(F)F)cc(S(C)(=O)=O)c1)c1ncnn1-c1ncc(C#N)s1 [I-54, N-{(1S)-1-[1-(5-cyano-1,3-thiazol-2-yl)-1H-1,2,4-triazol-5-yl]ethyl}-3-(difluoromethoxy)-5-(methylsulfonyl)benzamide] | 100% | 100% | – | – | – | –
Cc1nc([C@H](C)NC(=O)c2cc(Cl)nc(C(F)(F)F)c2)n(-c2ncc(C(=O)N(C)C)s2)n1 [I-77] | – | 100% | 100% | – | – | 100%
Cc1nc([C@H](C)NC(=O)c2cc(Cl)nc(C(F)(F)F)c2)n(-c2ncc(C(=O)N(C)CC#N)s2)n1 [I-80] | – | 100% | 100% | – | – | 100%
C[C@H](NC(=O)c1cc(Cl)cc(C(F)(F)Br)c1)c1ncnn1-c1ncc(C#N)s1 [I-86] | – | 100% | 100% | 100% | – | –
C[C@H](NC(=O)c1cc(C2CC2)cc(C(C)(F)F)c1)c1ncnn1-c1ncc(C#N)s1 [I-95] | – | 100% | 100% | 100% | – | –
C[C@H](NC(=O)c1cc(OC(F)F)cc(OC(F)(F)F)c1)c1ncnn1-c1ncc(C#N)s1 [I-100] | 100% | 100% | 100% | 90% | 100% | –
C[C@H](NC(=O)c1cc(OC(F)(F)F)cc(S(=O)(=O)C2CC2)c1)c1nc(C2CC2)nn1-c1ncc(C#N)s1 [I-104] | 90% | 100% | 100% | – | – | –
CNC(=O)c1cnc(-n2ncnc2[C@H](C)NC(=O)c2cc(Br)cc(OC(F)(F)F)c2)s1 [I-111] | 100% | 100% | 100% | – | – | –
CNC(=O)c1cnc(-n2ncnc2[C@H](C)NC(=O)c2cc(OC(F)F)cc(OC(F)F)c2)s1 [I-112] | 100% | 100% | 100% | 100% | 100% | –
CNC(=O)c1cnc(-n2ncnc2[C@H](C)NC(=O)c2cc(Cl)cc(S(=O)(=O)C(F)F)c2)s1 [I-114] | 100% | 100% | 100% | 90% | 100% | –
C[C@H](NC(=O)c1cc(Br)cc(OC(F)F)c1)c1ncnn1-c1ncc(C(=O)N(C)C)s1 [I-115] | 90% | 100% | 100% | – | – | –
C[C@H](NC(=O)c1cc(Cl)cc(S(=O)(=O)C(F)F)c1)c1ncnn1-c1ncc(C(=O)N(C)C)s1 [I-121] | 100% | – | 100% | – | – | –
C[C@H](NC(=O)c1cc(C(F)F)cc(S(=O)(=O)C2CC2)c1)c1nc(C2CC2)nn1-c1ncc(C#N)s1 [I-123] | 100% | 100% | 100% | – | – | –
C[C@H](NC(=O)c1cc(Cl)cc(S(=O)(=O)C(F)F)c1)c1ncnn1-c1ncc(C#N)s1 [I-134] | 100% | 100% | 100% | – | – | –

SMILES | mortality at 500 g/ha [1] | mortality at 100 g/ha [2] | pest or weed control at 32 µg/disc, 100 g/ha [3] | mortality at 100 g/ha [4] | mortality at 100 g/ha [1] | pest or weed control at 5 µg/cm2 [5]
C[C@H](NC(=O)c1cc(OC(F)F)cc(S(=O)(=O)C(F)F)c1)c1ncnn1-c1ncc(C#N)s1 [I-136] | 100% | 100% | 100% | – | 100% | –
CNC(=O)c1cnc(-n2ncnc2[C@H](C)NC(=O)c2cc(C(F)F)cc(C(F)F)c2)s1 [I-137] | 100% | 100% | 100% | 90% | – | –
C[C@H](NC(=O)c1cc(OC(F)F)cc(OC(F)F)c1)c1ncnn1-c1ncc(C(=O)N(C)C2CC2)s1 [I-148] | – | 100% | 100% | 90% | – | –
C[C@H](NC(=O)c1cc(OC(F)(F)F)cc(C2CC2)c1)c1ncnn1-c1ncc(C(=O)N(C)C2CC2)s1 [I-152] | – | 100% | 100% | 90% | – | –
C[C@H](NC(=O)c1cc(Br)cc(OC(F)F)c1)c1ncnn1-c1ncc(C(=O)N(C)C2CC2)s1 [I-154] | – | 100% | 100% | 90% | – | –
C[C@H](NC(=O)c1cc(Cl)cc(OC(F)(F)F)c1)c1ncnn1-c1ncc(C(=O)N(C)C2CC2)s1 [I-155] | – | 100% | 100% | 90% | – | –
Cc1nc([C@H](C)NC(=O)c2cc(Cl)cc(S(=O)(=O)C(F)F)c2)n(-c2ncc(C#N)s2)n1 [I-158] | 90% | 100% | 100% | – | – | –
Cc1nc([C@H](C)NC(=O)c2cc(OC(F)(F)F)cc(S(=O)(=O)C(F)F)c2)n(-c2ncc(C#N)s2)n1 [I-161] | – | 100% | 100% | 100% | – | –
C[C@H](NC(=O)c1cc(C(F)(F)F)cc(Cl)n1)c1ncnn1-c1ncc(C#N)s1 [I-166] | 100% | 100% | 100% | – | – | –
C[C@H](NC(=O)c1cc(Cl)cc(Cl)n1)c1ncnn1-c1ncc(C#N)s1 [I-167] | 100% | – | 100% | – | – | –
C[C@H](NC(=O)c1cc(Cl)nc(C(F)(F)F)c1)c1ncnn1-c1ncc(C#N)s1 [I-168] | 100% | 100% | 100% | – | – | –
C[C@H](NC(=O)c1cc(OC(F)(F)F)cc(C2(C#N)CC2)c1)c1nc(C2CC2)nn1-c1ncc(C#N)s1 [I-169] | 100% | 100% | 100% | – | – | –
CNC(=O)c1cnc(-n2ncnc2[C@H](C)NC(=O)c2cc(OC(F)(F)F)cc(S(=O)(=O)C(F)F)c2)s1 [I-170] | 100% | 100% | 100% | – | – | –
C[C@H](NC(=O)c1cc(OC(F)(F)F)cc(S(=O)(=O)C(F)F)c1)c1ncnn1-c1ncc(C(=O)N(C)C)s1 [I-171] | 100% | 100% | 100% | 100% | – | –
CNC(=O)c1cnc(-n2nc(C3CC3)nc2[C@H](C)NC(=O)c2cc(OC(F)(F)F)cc(C3CC3)c2)s1 [I-173] | 100% | – | 100% | – | – | –
Cc1nc([C@H](C)NC(=O)c2cncc(OC(F)(F)F)c2)n(-c2ncc(C#N)s2)n1 [I-175] | 100% | – | – | – | – | –
